Data published in patent publication EP4553080A1, “NUCLEOSIDE DERIVATIVES AS ANTIVIRAL AGENTS AGAINST CORONAVIRUSES” (Ustav Organicke Chemie a Biochemie AV CR, v.v.i., priority 2023, dated 2025).

These compounds were tested against nsp14 methyltransferase from SARS-CoV-2 (Severe acute respiratory syndrome coronavirus 2, UniProt P0DTD1) (assay: Nsp14 MTase activity inhibition in vitro (EchoMS assay)). Settings: not given.
Type: biochemical

SMILES	IC50
Cc1noc(Cc2ccccc2)c1CSC[C@H]1O[C@@H](n2ccc3c(N)ncnc32)[C@H](O)[C@@H]1O [Compound 99c, (2R,3R,4S,5S)-2-(4-Amino-7H-pyrrolo[2,3-d]pyrimidin-7H-yl)-5-((((5-benzyl-3-methylisoxazol-4-yl)methyl)thio)methyl)tetrahydrofuran-3,4-diol]	2000 to 5000 nM

Same assay, conditions: recombinant nsp14 protein expressed in E. coli; dose-response curve

SMILES	IC50
Cc1noc(-c2ccccc2)c1CSC[C@H]1O[C@@H](n2cc(C3=CCC(C#N)CC3)c3c(N)ncnc32)[C@H](O)[C@@H]1O (stereo partly drawn) [Compound 141b, 4-(4-Amino-7-((2R,3R,4S,5S)-3,4-dihydroxy-5-((((3-methyl-5-phenyhsoxazol-4-yl)methyl)thio)methyl)tetrahydrofuran-2-yl)-7H-pyrrolo[2,3-d]pyrimidin-5-yl)cyclohex-3-ene-1-carbonitrile]	10 to 30 nM
Cc1noc(-c2ccccc2)c1CSC[C@H]1O[C@@H](n2cc(CCc3cncnc3)c3c(N)ncnc32)[C@H](O)[C@@H]1O [Compound 183, (2R,3R,4S,5S)-2-(4-Amino-5-(2-(pyrimidin-5-yl)ethyl)-7H-pyrrolo[2,3-d]pyrimidin-7-yl)-5-((((3-methyl-5-phenylisoxazol-4-yl)methyl)thio)methyl)tetrahydrofuran-3,4-diol]	30 to 100 nM
COc1ncnc(-c2ccccc2)c1CSC[C@H]1O[C@@H](n2ccc3c(N)ncnc32)[C@H](O)[C@@H]1O [Compound 110c, (2R,3R,4S,5S)-2-(4-Amino-7H-pyrrolo[2,3-d]pyrimidin-7-yl)-5-((((4-methoxy-6-phenylpyrimidin-5-yl)methyl)thio)methyl)tetrahydrofuran-3,4-diol]	500 to 2000 nM
Cc1noc(-c2cccc3ccccc23)c1CSC[C@H]1O[C@@H](n2ccc3c(N)ncnc32)[C@H](O)[C@@H]1O [Compound 100c, (2R,3R,4S,5S)-2-(4-Amino-7H-pyrrolo[2,3-d]pyrimidin-7-yl)-5-((((3-methyl-5-(naphthalen-1-yl)isoxazol-4-yl)methyl)thio)methyl)tetrahydrofuran-3,4-diol]	10 to 30 nM
Cc1noc(-c2ccccc2)c1CSC[C@H]1O[C@@H](n2cc(-c3ccco3)c3c(N)ncnc32)[C@H](O)[C@@H]1O [Compound 153]	30 to 100 nM
Cc1noc(-c2ccc(N)cc2)c1CSC[C@H]1O[C@@H](n2cc(-c3ccc(C#N)cc3)c3c(N)ncnc32)[C@H](O)[C@@H]1O [Compound 234b, 4-(4-Amino-7-((2R,3R,4S,5S)-5-((((5-(4-aminophenyl)-3-methylisoxazol-4-yl)methyl)thio)methyl)-3,4-dihydroxytetrahydrofuran-2-yl)-7H-pyrrolo[2,3-d]pyrimidin-5-yl)benzonitrile]	10 to 30 nM
Cc1noc(-c2ccccc2)c1CSC[C@H]1O[C@@H](n2cc(-c3ccccc3)c3c(N)ncnc32)[C@H](O)[C@@H]1O [Compound 149, (2R,3R,4S,5S)-2-(4-Amino-5-phenyl-7H-pyrrolo[2,3-d]pyrimidin-7-yl)-5-((((3-methyl-5-phenylisoxazol-4-yl)methyl)thio)methyl)tetrahydrofuran-3,4-diol]	30 to 100 nM
Cc1ncnc(-c2ccc3c(c2)OCO3)c1CSC[C@H]1O[C@@H](n2ccc3c(N)ncnc32)[C@H](O)[C@@H]1O [Compound 102c, (2R,3R,4S,5S)-2-(4-Amino-7H-pyrrolo[2,3-d]pyrimidin-7-yl)-5-((((4-(benzo[d][1,3]dioxol-5-yl)-6-methylpyrimidin-5-yl)methyl)thio)methyl)tetrahydrofuran-3,4-diol]	30 to 100 nM
Nc1ncnc2c1ccn2[C@@H]1O[C@H](CSCc2cnsc2-c2ccccc2)[C@@H](O)[C@H]1O [Compound 103c, (2R,3R,4S,5S)-2-(4-Amino-7H-pyrrolo[2,3-d]pyrimidin-7-yl)-5-((((5-phenylisothlazol-4-yl)methyl)thio)methyl)tetrahydrofuran-3,4-diol]	500 to 2000 nM
COc1ccc(-c2onc(C)c2CSC[C@H]2O[C@@H](n3ccc4c(N)ncnc43)[C@H](O)[C@@H]2O)cc1 [Compound 94c, (2R,3R,4S,5S)-2-(4-Amino-7H-pyrrolo[2,3-d]pyrimidin-7-yl)-5-((((5-(4-methoxyphenyl)-3-methylisoxazol-4-yl)methyl)thio)methyl)tetrahydrofuran-3,4-diol]	10 to 30 nM
Cn1cnc(-c2ccccc2)c1CSC[C@H]1O[C@@H](n2cc(-c3ccc(C#N)cc3)c3c(N)ncnc32)[C@H](O)[C@@H]1O [Compound 230b, 4-(4-Amino-7-((2R,3R,4S,5S)-3,4-dihydroxy-5-((((1-methyl-4-phenyl-1H-imidazol-5-yl)methyl)thio)methyl)tetrahydrofuran-2-yl)-7H-pyrrolo[2,3-d]pyrimidin-5-yl)benzonitrile]	100 to 500 nM
Cc1ncc(-c2cn([C@@H]3O[C@H](CSCc4c(C)noc4-c4ccccc4)[C@@H](O)[C@H]3O)c3ncnc(N)c23)s1 [Compound 156, (2R,3R,4S,5S)-2-(4-Amino-5-(2-methylthiazol-5-yl)-7H-pyrrolo[2,3-d]pyrimidin-7-yl)-5-((((3-methyl-5-phenylisoxazol-4-yl)methyl)thio)methyl)tetrahydrofuran-3,4-diol]	10 to 30 nM
Cc1noc(C2CCCCC2)c1CSC[C@H]1O[C@@H](n2ccc3c(N)ncnc32)[C@H](O)[C@@H]1O [Compound 98c, (2R,3R,4S,5S)-2-(4-Amino-7H-pyrrolo[2,3-d]pyrimidin-7-yl)-5-((((5-cyclohexyl-3-methylisoxazol-4-yl)methyl)thio)methyl)tetrahydrofuran-3,4-diol]	500 to 2000 nM
Cc1noc(-c2ccccc2)c1CSC[C@H]1O[C@@H](n2cc(-c3ccc([N+](=O)[O-])cc3)c3c(N)ncnc32)[C@H](O)[C@@H]1O [Compound 144b]	30 to 100 nM
Cc1noc(-c2ccccc2)c1CSC[C@H]1O[C@@H](n2cc(CC(C)C)c3c(N)ncnc32)[C@H](O)[C@@H]1O [Compound 131b, (2R,3R,4S,5S)-2-(4-Amino-5-isobutyl-7H-pyrrolo[2,3-d]pyrimidin-7-yl)-5-((((3-methyl-5-phenylisoxazol-4-yl)methyl)thio)methyl)tetrahydrofuran-3,4-diol]	100 to 500 nM
C=Cc1cn([C@@H]2O[C@H](CSCc3c(C)noc3-c3ccccc3)[C@@H](O)[C@H]2O)c2ncnc(N)c12 [Compound 139b, (2R,3R,4S,5S)-2-(4-Amino-5-vinyl-7H-pyrrolo[2,3-d]pyrimidin-7-yl)-5-((((3-methyl-5-phenylisoxazol-4-yl)methyl)thio)methyl)tetrahydrofuran-3,4-diol]	500 to 2000 nM
Cc1noc(-c2ccccc2)c1CSC[C@H]1O[C@@H](n2cc(-c3ccc4nc[nH]c4c3)c3c(N)ncnc32)[C@H](O)[C@@H]1O [Compound 151, (2R,3R,4S,5S)-2-(4-Amino-5-(1H-benzo[d]imidazol-6-yl)-7H-pyrrolo[2,3-d]pyrimidin-7-yl)-5-((((3-methyl-5-phenylisoxazol-4-yl)methyl)thio)methyl)tetrahydrofuran-3,4-diol]	30 to 100 nM
Cc1ncn(-c2ccccc2)c1CSC[C@H]1O[C@@H](n2ccc3c(N)ncnc32)[C@H](O)[C@@H]1O [Compound 61c, (2R,3R,4S,5S)-2-(4-Amino-7H-pyrrolo[2,3-d]pyrimidin-7-yl)-5-((((4-methyl-1-phenyl-1H-imidazol-5-yl)methyl)thio)methyl)tetrahydrofuran-3,4-diol]	100 to 500 nM
Cc1noc(-c2ccccc2)c1CSC[C@H]1O[C@@H](n2nc(-c3cccc(C(N)=O)c3)c3c(N)ncnc32)[C@H](O)[C@@H]1O [Compound 221b, 3-(4-Amino-1-((2R,3R,4S,5S)-3,4-dihydroxy-5-((((3-methyl-5-phenylisoxazol-4-yl)methyl)thio)methyl)tetrahydrofuran-2-yl)-1H-pyrazolo[3,4-d]pyrimidin-3-yl)benzamide]	30 to 100 nM
Cc1noc(-c2ccccc2)c1CSC[C@H]1O[C@@H](n2cc(C#N)c3c(N)ncnc32)[C@H](O)[C@@H]1O [Compound 138b, 4-Amino-7-((2R,3R,4S,5S)-3,4-dihydroxy-5-((((3-methyl-5-phenylisoxazol-4-yl)methyl)thio)methyl)tetrahydrofuran-2-yl)-7H-pyrrolo[2,3-d]pyrimidine-5-carbonitrile]	30 to 100 nM
Cc1noc(-c2ccc([N+](=O)[O-])cc2)c1CSC[C@H]1O[C@@H](n2ccc3c(N)ncnc32)[C@H](O)[C@@H]1O [Compound 93c, (2R,3R,4S,5S)-2-(4-Amino-7H-pyrrolo[2,3-d]pyrimidin-7-yl)-5-((((3-methyl-5-(4-nitrophenyl)isoxazol-4-yl)methyl)thio)methyl)tetrahydrofuran-3,4-diol]	100 to 500 nM
Cc1nsc(-c2ccccc2)c1CSC[C@H]1O[C@@H](n2ccc3c(N)ncnc32)[C@H](O)[C@@H]1O [Compound 54c, (2R,3R,4S,5S)-2-(4-Amino-7H-pyrrolo[2,3-d]pyrimidin-7-yl)-5-((((3-methyl-5-phenylisothiazol-4-yl)methyl)thio)methyl)tetrahydrofuran-3,4-diol]	30 to 100 nM
Cc1noc(-c2ccccc2)c1CSC[C@H]1O[C@@H](n2cc(CCCC#N)c3c(N)ncnc32)[C@H](O)[C@@H]1O [Compound 137b, 4-(4-Amino-7-((2R,3R,4S,5S)-3,4-dihydroxy-5-((((3-methyl-5-phenylisoxazol-4-yl)methyl)thio)methyl)tetrahydrofuran-2-yl)-7H-pyrrolo[2,3-d]pyrimidin-5-yl)butanenitrile]	10 to 30 nM
Cc1noc(-c2ccccc2)c1CSC[C@H]1O[C@@H](n2cc(C#Cc3cnc(N)nc3)c3c(N)ncnc32)[C@H](O)[C@@H]1O [Compound 174b, (2R,3R,4S,5S)-2-(4-Amino-5-((2-aminopyrimidin-5-yl)ethynyl)-7H-pyrrolo[2,3-d]pyrimidin-7-yl)-5-((((3-methyl-5-phenylisoxazol-4-yl)methyl)thio)methyl)tetrahydrofuran-3,4-diol]	30 to 100 nM
Cc1noc(-c2ccc3c(c2)OCO3)c1CSC[C@H]1O[C@@H](n2ccc3c(N)ncnc32)[C@H](O)[C@@H]1O [Compound 96c, (2R,3R,4S,5S)-2-(4-Amino-7H-pyrrolo[2,3-d]pyrimidin-7-yl)-5-((((5-(benzo[d][1,3]dioxol-5-yl)-3-methylisoxazol-4-yl)methyl)thio)methyl)tetrahydrofuran-3,4-diol]	10 to 30 nM
